Results: publication PMC10586084 (Journal of Enzyme Inhibition and Medicinal Chemistry, 2023)

How the values were obtained:
Type in all cases: biochemical
hCA XII = hCA XII (Homo sapiens, UniProt O43570); assay: stopped-flow CO2 hydrase assay, hCA XII; conditions: for Ki: KI hCA XII, stopped flow technique, mean from three assays; for Selectivity index I/XII: ratio KI hCA I / KI hCA XII; for Selectivity index II/XII: ratio KI hCA II / KI hCA XII; for Selectivity index IV/XII: ratio KI hCA IV / KI hCA XII
hCA II = hCA II (Homo sapiens, UniProt P00918); assay: stopped-flow CO2 hydrase assay, hCA II; conditions: stopped flow technique, mean from three assays
hCA I = hCA I (Homo sapiens, UniProt P00915); assay: stopped-flow CO2 hydrase assay, hCA I; conditions: stopped flow technique, mean from three assays
hCA IV = hCA IV (Homo sapiens, UniProt P22748); assay: stopped-flow CO2 hydrase assay, hCA IV; conditions: stopped flow technique, mean from three assays
hCA IX = hCA IX (Homo sapiens, UniProt Q16790); assay: biochemical; conditions: for Ki: KI hCA IX, stopped flow technique, mean from three assays; for Selectivity index I/IX: ratio KI hCA I / KI hCA IX; for Selectivity index II/IX: ratio KI hCA II / KI hCA IX; for Selectivity index IV/IX: ratio KI hCA IV / KI hCA IX

Sequence of hCA IV (P22748 19-284 limits assumed): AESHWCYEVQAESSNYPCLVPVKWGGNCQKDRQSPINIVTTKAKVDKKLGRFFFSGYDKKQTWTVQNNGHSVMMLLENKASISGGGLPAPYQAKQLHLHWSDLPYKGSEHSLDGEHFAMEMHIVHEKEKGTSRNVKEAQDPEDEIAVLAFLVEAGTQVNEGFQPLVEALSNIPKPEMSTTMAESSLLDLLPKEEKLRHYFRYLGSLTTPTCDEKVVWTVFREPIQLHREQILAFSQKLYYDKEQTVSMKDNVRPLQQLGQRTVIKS
Sequence of hCA XII (O43570 25-354): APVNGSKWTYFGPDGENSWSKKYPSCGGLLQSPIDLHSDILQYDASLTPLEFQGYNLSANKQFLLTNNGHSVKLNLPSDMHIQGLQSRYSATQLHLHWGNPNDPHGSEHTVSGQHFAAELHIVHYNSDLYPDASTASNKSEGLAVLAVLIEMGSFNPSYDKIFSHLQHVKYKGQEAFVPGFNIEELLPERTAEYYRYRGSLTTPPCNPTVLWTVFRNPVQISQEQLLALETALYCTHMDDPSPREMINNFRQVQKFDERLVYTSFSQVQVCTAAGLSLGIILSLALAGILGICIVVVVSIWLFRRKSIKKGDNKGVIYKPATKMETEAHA
Sequence of hCA I (P00915 whole entry): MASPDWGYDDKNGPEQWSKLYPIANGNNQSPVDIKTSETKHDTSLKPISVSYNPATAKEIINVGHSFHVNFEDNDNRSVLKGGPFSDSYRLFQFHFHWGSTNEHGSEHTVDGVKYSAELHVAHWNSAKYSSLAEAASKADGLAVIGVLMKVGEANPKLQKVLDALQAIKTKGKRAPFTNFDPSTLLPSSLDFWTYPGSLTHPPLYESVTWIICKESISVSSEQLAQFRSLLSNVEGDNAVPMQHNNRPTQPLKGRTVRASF

Row | Ki (hCA XII) [nM] | Selectivity index I/XII (hCA XII) | Selectivity index II/XII (hCA XII) | Selectivity index IV/XII (hCA XII) | Ki (hCA II) [nM] | Ki (hCA I) [nM] | Ki (hCA IV) [nM] | Ki (hCA IX) [nM] | Selectivity index I/IX (hCA IX) | Selectivity index II/IX (hCA IX) | Selectivity index IV/IX (hCA IX) | Structure (SMILES)
1 | 15.3 | 47.4 | 2.9 | 47.5 | 43.7 | 725 | 726 | 41.6 | 17.4 | 1.0 | 17.5 | NS(=O)(=O)c1ccc(Nc2nc3nccc(-c4ccncc4)n3n2)cc1 [Compound 1c, 4-((7-(Pyridin-4-yl)-[1,2,4]triazolo[1,5-a]pyrimidin-2-yl)amino)benzenesulfonamide]
2 | 62.4 | 12.2 | 1.3 | 15.9 | 82.7 | 763 | 993 | 28.8 | 26.5 | 2.9 | 34.5 | NS(=O)(=O)c1ccc(Nc2nc3nccc(-c4ccc(F)cc4)n3n2)cc1 [Compound 1f, 4-((7-(4-Fluorophenyl)-[1,2,4]triazolo[1,5-a]pyrimidin-2-yl)amino)benzenesulfonamide]
3 | 71.7 | 11.7 | 1.0 | 18.5 | 75.3 | 841 | 1330 | 33.2 | 25.3 | 2.3 | 39.9 | NS(=O)(=O)c1ccc(Nc2nc3nccc(-c4ccccc4)n3n2)cc1 [Compound 1a, 4-((7-Phenyl-[1,2,4]triazolo[1,5-a]pyrimidin-2-yl)amino)benzenesulfonamide]
4 | 70.2 | 20.0 | 0.8 | 69.0 | 55.2 | 1400 | 4850 | 26.2 | 53.5 | 2.1 | 185 | Cc1cccc(-c2ccnc3nc(Nc4ccc(S(N)(=O)=O)cc4)nn23)c1 [Compound 1u, 4-((7-(m-Tolyl)-[1,2,4]triazolo[1,5-a]pyrimidin-2-yl)amino)benzenesulfonamide]
5 | 25.8 | 26.4 | 1.4 | 35.7 | 35.9 | 682 | 920 | 19.5 | 35.0 | 1.8 | 47.2 | NS(=O)(=O)c1ccc(Nc2nc3nccc(-c4ccccc4F)n3n2)cc1 [Compound 1h, 4-((7-(2-Fluorophenyl)-[1,2,4]triazolo[1,5-a]pyrimidin-2-yl)amino)benzenesulfonamide]
6 | 29.2 | 77.1 | 2.1 | 137 | 62.4 | 2250 | 4000 | 74.1 | 30.4 | 0.8 | 53.9 | NS(=O)(=O)c1ccc(Nc2nc3nccc(-c4ccc(Cl)cc4)n3n2)cc1 [Compound 1k, 4-((7-(4-Chlorophenyl)-[1,2,4]triazolo[1,5-a]pyrimidin-2-yl)amino)benzenesulfonamide]
7 | 61.2 | 24.0 | 1.0 | 37.4 | 64 | 1470 | 2290 | 41.5 | 35.5 | 1.5 | 55.1 | Cc1ccc(-c2ccnc3nc(Nc4ccc(S(N)(=O)=O)cc4)nn23)cc1 [Compound 1t, 4-((7-(p-Tolyl)-[1,2,4]triazolo[1,5-a]pyrimidin-2-yl)amino)benzenesulfonamide]
8 | 4.3 | 806 | 11.2 | 160 | 48 | 3470 | 690 | 49.9 | 69.5 | 1.0 | 13.8 | NS(=O)(=O)c1ccc(Nc2nc3nccc(-c4cccc([N+](=O)[O-])c4)n3n2)cc1 [Compound 1r, 4-((7-(3-Nitrophenyl)-[1,2,4]triazolo[1,5-a]pyrimidin-2-yl)amino)benzenesulfonamide]
9 | 8.8 |  |  |  | 24.8 | 602 | 333 | 5.1 |  |  |  | NS(=O)(=O)c1ccc(Nc2nc3nccc(-c4cccnc4)n3n2)cc1 [Compound 1d, 4-((7-(Pyridin-3-yl)-[1,2,4]triazolo[1,5-a]pyrimidin-2-yl)amino)benzenesulfonamide]
10 | 55.2 | 40.9 | 1.2 | 66.1 | 69.3 | 2260 | 3650 | 43.5 | 51.9 | 1.6 | 83.9 | CCOc1ccc(-c2ccnc3nc(Nc4ccc(S(N)(=O)=O)cc4)nn23)cc1 [Compound 1z, 4-((7-(4-Ethoxyphenyl)-[1,2,4]triazolo[1,5-a]pyrimidin-2-yl)amino)benzenesulfonamide]
11 | 27.1 | 167 | 4.1 | 37.2 | 110 | 4530 | 1010 | 46.8 | 96.7 | 2.4 | 21.5 | COc1cc(OC)cc(-c2ccnc3nc(Nc4ccc(S(N)(=O)=O)cc4)nn23)c1 [Compound 1aa, 4-((7-(3,5-Dimethoxyphenyl)-[1,2,4]triazolo[1,5-a]pyrimidin-2-yl)amino)benzenesulfonamide]
12 | 46.4 | 142 | 2.7 | 129 | 124 | 6580 | 5980 | 30.4 | 216 | 4.06 | 197 | NS(=O)(=O)c1ccc(Nc2nc3nccc(-c4cccc(Cl)c4)n3n2)cc1 [Compound 1l, 4-((7-(3-Chlorophenyl)-[1,2,4]triazolo[1,5-a]pyrimidin-2-yl)amino)benzenesulfonamide]
13 | 9 | 110 | 10.6 | 169 | 95.2 | 993 | 1520 | 35.8 | 27.7 | 2.6 | 42.4 | COc1ccc(-c2ccnc3nc(Nc4ccc(S(N)(=O)=O)cc4)nn23)cc1OC [Compound 1ab, 4-((7-(3,4-Dimethoxyphenyl)-[1,2,4]triazolo[1,5-a]pyrimidin-2-yl)amino)benzenesulfonamide]
14 | 48.9 | 173 | 1.6 | 81.4 | 77.1 | 8450 | 3980 | 20.4 | 414 | 3.8 | 195 | NS(=O)(=O)c1ccc(Nc2nc3nccc(-c4ccccc4[N+](=O)[O-])n3n2)cc1 [Compound 1s, 4-((7-(2-Nitrophenyl)-[1,2,4]triazolo[1,5-a]pyrimidin-2-yl)amino)benzenesulfonamide]
15 | 39.8 | 40.9 | 2.2 | 50.3 | 89.6 | 1630 | 2000 | 50.8 | 32.0 | 1.8 | 39.4 | COc1ccc(-c2ccnc3nc(Nc4ccc(S(N)(=O)=O)cc4)nn23)cc1 [Compound 1w, 4-((7-(4-Methoxyphenyl)-[1,2,4]triazolo[1,5-a]pyrimidin-2-yl)amino)benzenesulfonamide]
16 | 42.6 | 12.9 | 1.1 | 20.0 | 45.9 | 551 | 853 | 22.4 | 24.6 | 2.0 | 38.1 | NS(=O)(=O)c1ccc(Nc2nc3nccc(-c4cccc(F)c4)n3n2)cc1 [Compound 1g, 4-((7-(3-Fluorophenyl)-[1,2,4]triazolo[1,5-a]pyrimidin-2-yl)amino)benzenesulfonamide]
17 | 66.9 | 7.5 | 1.5 | 39.7 | 98.2 | 501 | 2660 | 49.5 | 10.1 | 2.0 | 53.7 | NS(=O)(=O)c1ccc(Nc2nc3nccc(-c4cccs4)n3n2)cc1 [Compound 1b, 4-((7-(Thiophen-2-yl)-[1,2,4]triazolo[1,5-a]pyrimidin-2-yl)amino)benzenesulfonamide]
